According to patent US20250144187A1, “COMBINATION OF HYDROLASES AND ANTI-MICROORGANISM DRUGS AND USES THEREOF” (CENTRE FOR EYE AND VISION RESEARCH LIMITED, priority 2023, published 2025):
Where two headings read alike, the source gives them in different places.

Legend:
MRSA [1] = assay: High-throughput screening of 4989 compounds with human lysozyme; type: cell-based, Staphylococcus aureus; settings: for MRSA Inhibition ratio (%): compound 2.5 μM + 1 mg/ml lysozyme relative to compound only
Description: 1) High-throughput screening. […] Specifically, these compounds were added into bacterial suspensions (1×10^6 CFU/ml) in the […] microliter plate, in which each well contained 50 μl of lysogeny broth (LB) medium with or without 1 mg/ml lysozyme. LB medium in the absence of bacteria served as background group. Then, the real-time growth curves of MRSA were monitored per hour and for 24 hours. Experiments were performed with the biological replicates. Fly analyzing the absorbance 600 nm (OD600) of bacterial culture at the time point of 24-hour, the inhibition ratio (%) was calculated according to (ODcontrol−ODsample)/(ODcontrol−ODbackground)×100%. Here, the relative and apparent inhibition ratios were figured out by using the absorbance of bacterial suspension only containing compound and that without any drug treatment as ODcontrol, respectively. The relative and apparent inhibition ratios indicated the combination effect and potential toxicity of compound in combination effect. Synergy effect was defined as the relative inhibition ratio of ≥90%.

MRSA [2] = assay: Time-killing curves, cefdinir/lysozyme; type: cell-based, Staphylococcus aureus; settings: 0.5 mg/ml lysozyme + 0.5 μg/ml cefdinir, after 16 hours; reduced from the level of 10^10
Description: 3) Time-killing curves. According to standard method [Thappeta K R V et al., ACS Infect Dis 6, 1228-1237 (2020)], over-night cultured MRSA was diluted and aliquoted into new sterile 50 ml tubes at 1:1000 ratio. Then, the bacterial suspension was cultured in LB medium containing 0.5 or 2.0 μg/ml cefdinir, 0.5 mg/ml lysozyme or their combination at 37° C. with shaking at 250 rpm. Bacterial suspension without any drugs served as control group. To measure their kinetic time-killing curves, twenty micro liters of each culture was extracted at time intervals of 0, 2, 4, 6, 9 and 16 h for measurement of the OD600 and colony-forming units. Ten micro liters of each dilution was spotted on the LB-agar plates and incubated at 37° C. for 24 hours prior to enumeration. All assays were performed in triplicate.

MRSE [3] = assay: High-throughput screening of 1953 FDA-approved compounds with human lysozyme; type: cell-based, Staphylococcus epidermis; settings: compound 25 μM + 1 mg/ml lysozyme, 24-hour
Description: 1) High-throughput screening. According to standard screening method [Zhong. […] Commun. 11, 523 (2020)], 1953 FDA-approved compounds from our drugs library at a fixed concentrations of 25 μM were screened against methicillin-resistant Staphylococcus aureus (MRSA) and Staphylococcus epidermis (a coagulase negative Staphylococci, MRSE), in combination with human lysozyme. Specifically, these compounds were added into bacterial suspensions (1×10^5 CFU/ml, in LB medium) in the absence or presence of 1 mg/ml lysozyme. LB medium without bacteria served as background group. Then, the real-time growth curvet of MRSA were monitored per hour and for 24 hours. Absorbance at 600 am (OD600) of bacterial culture at the time point of 24-hour was also measured. The inhibition ratio (%) was calculated as (ODcontrol−ODsample)/(ODcontrol−ODbackground)×100%. […] Herein, the relative and apparent inhibition ratios indicated the combination effect and potential toxicity of compound, respectively. Synergy effect was defined as the relative inhibition ratio of ≥90%. All assays were performed in triplicate.

MRSE [4] = assay: Time-killing curves, tedizolid phosphate/lysozyme; type: cell-based, Staphylococcus epidermis; settings: tedizolid phosphate + 0.5 mg/ml lysozyme, after 22 hours; dropping from the level of 10^12
MRSA and MRSE biofilm = assay: Biofilm crystal violet assay, tedizolid phosphate/lysozyme; type: cell-based; settings: tedizolid phosphate + 0.5 mg/ml lysozyme
Description: 4) Biofilm assays. According to previously described method [Thappeta, K. R. et al., ACS Infect. Dis. 6, 1228-1237(2020); Merritt, J. H. et al., Curr. Protoc. Microbiol. Chapter 1, Unit 1B.1 (2005); O'Toole, G. A. et al., J, Vis. Exp. 47, 2437 (2011)], biofilm was assessed by using an adherence assay on 96-well tissue culture plates. Briefly, tedizolid phosphate at final concentration of 0.3 μg/ml was added into bacterial suspensions (1×10^6 CFU/ml, in LB medium) in the absence or presence of 0.5 mg/ml lysozyme. LB medium with or without bacteria served as positive or negative control group, respectively. After overnight incubation at 37° C., the bacterial suspension was removed, and well was gently washed twice with sterile PBS to remove exclusively non-adherent bacteria. The adherent biofilm was fixed by using 95% methanol at 60° C. for 15 minutes. Then, biofilm was stained with 1% Crystal violet (100 μl/well) at 37° C. for 15 minutes, Ater that, all wells were gently washed with PBS to remove redundant crystal violet. Finally, the dye was solubilized with […] of 95% ethanol per well at 37° C. for 3 minutes. The optical density at 590 nm of solution in each well was measured using a micro-plate reader. Herein, strong biofilm, weak biofilm and no biofilm were defined as “[…]”, “ODnegative control<ODsample<2ODnegative control” and “ODsample≤ODnegative control”. […]

MRSA [5] = assay: Nascent protein synthesis analysis (OPP probe); type: cell-based; settings: Staphylococcus aureus, 1 h, read-out: minimal dosage of tedizolid phosphate for synthesis inhibition of half of the nascent protein
Description: 12) Nascent protein synthesis analysis. According to the previously reported method [Forester, C. M et al., Proc. Nat. […] Specifically, mid-log-phase MRSA with OD600 of 0.4 to 0.6 was treated with lysozyme, tedizolid phosphate or their combination at different concentrations at 37° C. for 1 hour. These bacteria served as related negative control groups. Positive control groups had similar protocols but with addition of 20 μM OPP. After 1 hour incubation, all bacteria were collected washed by cold PBS for 3 times and fixed by 3.7% formaldehyde in PBS, followed by re-suspension in lysis buffer containing 0.5% Triton® X-100. Then, these fixed and permeabilized cells were incubated with Click-iT™ plus OPP reaction cocktail according to the standard protocol [Forester, C. M et al., Proc. Nat. Acad. U.S.A. 115, 2353-2358 (2018)]. After 30 minutes incubation in the prevention of light at room temperature, the reaction cocktail was removed. Next, these fixed cells in 96-well plate were washed by using 200 μl/well of Click-iT® reaction rinse buffer, followed by further incubation with 1×HCS nuclear Mask™ blue stain working solution. After 30 minutes incubation in the prevention of light at room temperature, the nuclear Mask™ blue stain working solution was removed. […] Inhibition degrees of nascent proteins synthesis were expressed with fluorescence ratio (Alexa Fluor®/nuclear Mask™) as average±SD. […]

SMILES	MRSA Combination (MRSA [1]; OD600 at 24-hour, compound 2.5 μM + 1 mg/ml lysozyme)	MRSA Drug only (MRSA [1]; OD600 at 24-hour, compound 2.5 μM without lysozyme)	MRSA Inhibition ratio (%) (MRSA [1])	MRSA Inhibition ratio (%) (MRSA [1]; listed as Ce ? dinir)	bacterial load (MRSA [2])	Growth inhibition ratio (mean ± SD, %) MRSE (MRSE [3]) [%]	bacterial load per ml culture (MRSE [4])	biofilm formation (absorbance at 590 nm), pre-biofilm stage (MRSA and MRSE biofilm)	IC50 (MRSA [5]; combination with 0.5 mg/ml lysozyme) [µg/mL]	IC50 (MRSA [5]; monotherapy) [µg/mL]
C=CC1=C(C(=O)O)N2C(=O)[C@@H](NC(=O)/C(=N\O)c3csc(N)n3)[C@H]2SC1 [cefdinir, Cefdinir]	0.0564	0.6975	above 90%	99.16	10^7 CFU/ml	20.31 ± 13.83	–	–	–	–
Cn1nnc(-c2ccc(-c3ccc(N4C[C@H](COP(=O)(O)O)OC4=O)cc3F)cn2)n1 [tedizolid phosphate, Tedizolid Phosphate]	–	–	–	–	–	–	10^6 colony forming units (CFUs)	biofilm was eliminated	0.32	9.5
